Measurements published in PubChem BioAssay (NCI).
Several values for one entry are separate records, joined by “and”; a condition that tells them apart may be missing. Equal values may be shown once.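 1) Cells in 96-well plates. 2) Compound, 48 h, 5 concentrations. 3) Linear interpolation between surrounding doses. 4) Unreached endpoint = highest concentration. Abbreviation: GI50, concentration required for 50% inhibition of growth. TGI is the concentration that stops growth completely.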

Tests used:
Test in all cases: growth of human tumour cells (NCI), 48 h
[1] = test system: A498 renal
[2] = test system: IGROV1 ovarian
[3] = test system: K-562 leukemia
[4] = test system: KM12 colon
[5] = test system: MOLT-4 leukemia
[6] = test system: OVCAR-3 ovarian
[7] = test system: SK-MEL-5 melanoma
[8] = test system: UACC-62 melanoma
[9] = test system: NCI/ADR-RES ovarian
[10] = test system: T-47D breast

Row | SMILES | TGI [1] [µM] | TGI [2] | TGI [3] | TGI [4] | TGI [5] | TGI [6] [µM] | TGI [7] [µM] | TGI [8] | GI50 [2] [µM] | GI50 [3] [µM] | GI50 [5] [µM] | GI50 [9] [µM] | TGI [9] [µM] | GI50 [6] [µM] | GI50 [10] [µM] | TGI [10] [µM] | GI50 [1] [µM] | GI50 [7] [µM] | GI50 [8] [µM]
1 | CC(C)N(C(=O)C12C3C4C5(C#N)C3C1(C#N)C5C42C#N)C(C)C (stereo not given) | > 100 | > 100 µM | > 100 µM | > 100 µM | > 100 µM | > 100 | > 100 | > 100 µM | – | – | – | – | – | – | – | – | – | – | –
2 | O=C(C(=O)c1cc2ccccc2[nH]1)c1cc2ccccc2[nH]1 | > 347 | > 347 µM | > 347 µM | > 347 µM | > 347 µM | 95.7 | > 347 | > 347 µM | – | – | – | – | – | – | – | – | – | – | –
3 | C=C(CCCCC)CN1CCCC1C(C)=O (stereo not given) | > 93.5 | > 100 µM | 51.5 µM | > 100 µM | 33 µM | > 100 | 33.2 | > 100 µM | – | – | – | – | – | – | – | – | – | – | –
4 | CCOC(=O)c1cc(C(=O)c2ccc(OC)cc2)n2ccc(/C=C/c3cc[n+](CC(=O)c4ccc(OC)cc4)cc3)cc12 | – | 4.46 µM | 3.31 µM | – | 5.53 µM | 3 | – | – | 1.74 | 0.567 | 1.91 | > 100 | > 100 | 1.52 | 1.91 | 4.43 | – | – | –
5 | O=C1[C@H]2ON(c3ccccc3)C(c3ccc([N+](=O)[O-])cc3)[C@H]2C(=O)N1c1ccc(Cc2ccc(N3C(=O)[C@@H]4ON(c5ccccc5)C(c5ccc([N+](=O)[O-])cc5)[C@@H]4C3=O)cc2)cc1 (stereo not given in full) | > 100 | > 100 µM | > 100 µM | > 100 µM | > 100 µM | > 100 | > 100 | > 100 µM | – | – | – | – | – | – | – | – | – | – | –
6 | Cc1cnc2ccc(C)c([N+](=O)[O-])c2c1NCCCN(C)C | – | – | > 100 µM | > 100 µM | > 100 µM | > 100 | – | – | – | – | – | – | – | – | – | – | – | – | –
7 | NNC(=O)C(=O)N/N=C(\CCCC(=O)Nc1ccc(Cl)cc1)CC(=O)c1ccc(F)cc1 | 88.6 | > 100 µM | – | > 100 µM | > 100 µM | > 100 | > 100 | 78.5 µM | – | – | – | – | – | – | – | – | – | – | –
8 | C/C(=N\N=C(N)N)C(CN1CCCCC1)C(c1ccccc1)c1c(O)c2ccccc2oc1=O (stereo not given) | > 100 | > 100 µM | > 100 µM | – | – | > 100 | – | > 100 µM | – | – | – | – | – | – | – | – | – | – | –
9 | COc1ccc(Cc2c3cc(O)c(=O)cc-3ccn2C)cc1 | > 100 | > 100 µM | > 100 µM | > 100 µM | > 81 µM | > 100 | > 76.1 | 61 µM | – | – | – | – | – | – | – | – | – | – | –
10 | OC(CNc1ccnc2cc(Cl)ccc12)CNc1ccnc2cc(Cl)ccc12 | 25.3 | 36.8 µM | – | – | – | 3.42 | 3.02 | 3.37 µM | 10.9 | – | – | > 100 | > 100 | 1.81 | – | – | 11 | 1.58 | 1.7
11 | CSc1ccc2c(cc1=O)[C@@H](NC(=O)c1cccc([N+](=O)[O-])c1)CCc1cc(O)c(O)c(O)c1-2 | 90.7 | > 100 µM | 77.6 µM | > 100 µM | 53.1 µM | > 100 | – | 39.2 µM | – | – | – | – | – | – | – | – | – | – | –
12 | CCOC(OC(C)=O)[C@@H]1C=C[C@H](C)N(c2ccc([N+](=O)[O-])cc2)O1 (stereo not given in full) | > 59.4 | 29 µM | > 26.7 µM | 7.82 µM | 5.49 µM | 15.7 | 13.4 | 7.55 µM | – | – | – | – | – | – | – | – | – | – | –
13 | C=CCNC(=O)NCCCCC(NC(C)=O)C(=O)NCc1ccccc1 (stereo not given) | > 100 | > 100 µM | > 100 µM | > 100 µM | > 100 µM | > 100 | > 100 | > 100 µM | – | – | – | – | – | – | – | – | – | – | –
14 | C=C(C)[C@H]1CC[C@@]2(C)C(C1)[C@H](C)CC[C@@H]2O (stereo not given in full) | > 100 | > 100 µM | > 100 µM | > 100 µM | > 100 µM | > 100 | > 100 | > 100 µM | – | – | – | – | – | – | – | – | – | – | –
15 | CC1=N/C(=C/c2ccc3c(c2)OCO3)C(=O)O1 | > 100 | > 100 µM | > 100 µM | > 100 µM | > 100 µM | > 100 | > 100 | > 100 µM | – | – | – | – | – | – | – | – | – | – | –
16 | COC(COC(N)=O)C1=C(N2CC2)C(=O)C(C)=C(N2CC2)C1=O (stereo not given) | 0.267 | 0.995 µM | 1.76 µM | 0.365 µM | 7.26 µM | 0.379 | 0.128 | 0.173 µM | – | – | – | – | 0.101 | – | – | – | – | – | –
17 | Cc1ccc(C)c(N2C(=O)C(=O)C(c3nc4ccccc4s3)/C(=N/N)C2=O)c1 (stereo not given) | > 22.6 | > 100 µM | > 100 µM | > 100 µM | > 100 µM | > 100 | > 100 | > 100 µM | – | – | – | – | – | – | – | – | – | – | –
18 | COC(=O)[C@@H]1c2cc3c(c(O)c2[C@@H](OC2OC(C)C(OC)C(C)(OC)C2OC)C[C@]1(C)O)C(=O)c1c(O)cc2c(c1C3=O)O[C@H]1O[C@]2(C)[C@H](O)[C@@H](N(C)C)[C@@H]1O (stereo not given in full) | 0.0162 | 0.65 µM and 4.74 µM | 0.399 µM and 0.162 µM | 0.0425 µM and 0.0508 µM | 0.229 µM and 0.0903 µM | – | 0.0278 | 0.0206 µM and 0.0277 µM | – | – | – | – | – | 0.0683 | – | 0.889 | – | – | –
